We go through 1 compound from US20090202451A1, “ORAL CARE PRODUCT AND METHODS OF USE AND MANUFACTURE THEREOF” (COLGATE-PALMOLIVE COMPANY, priority 2008, published 2009).

The test system of this test is S. sanguis. Kind of test: Ammonia production by S. sanguis at pH 4.0. The class given is cell-based. To be noted: 5 millimolar amino acid, 0.1% sucrose, pH 4.0, 37° C., 30 minutes. The method, then: An overnight culture of S. sanguis was grown at 37° C. in trypticase soy broth (Becton Dickinson, Sparks, Md.). The culture was centrifuged at 5,000 rpm for 5 minutes at 1 milliliter at a time into preweighed tubes in order to accumulate approximately 5 milligrams of wet pellet weight. The pellet was then resuspended into 20 millimolar potassium phosphate buffer (J T Baker, Phillipsburg, N.J.), pH 4.0, to simulate a stressed environment for the bacterial cell where ammonia would be produced for survival. The final concentration was 5 milligram per milliliter. To this final concentration, a 5 millimolar final concentration of L-arginine. L-citrulline, or L-ornithine was added along with a 0.1% final concentration of sucrose (VWR, West Chester, Pa.). This mixture was then incubated at 37° C. in a shaking water bath for 30 minutes before ammonia production was determined.
In order to analyze for ammonia, an Ammonia Assay kit was used from Diagnostic Chemicals Limited (Oxford, Conn.). The intended use of this specific kit is for the in vitro quantification of ammonia in plasma, but the procedure was modified in order to determine and quantify the ammonia production in plaque and/or bacteria.

`N=C(N)NCCC[C@H](N)C(=O)O` [L-Arginine, L-arginine]: the Ammonia came to 2.20 ppm (Trial 3) and 0.5 ppm (Trial 5).
